# Results from patent US6235717A, “Pharmaceutical compounds” (Glaxo Wellcome Inc., priority 1993, dated 2001).
# Non-standard residues stand in square brackets, D forms with d. Residues, ends and D or L forms follow the SMILES beside them. ξ: configuration not given here. *: point of attachment. Phe(4-Br) = N[CH](Cc1ccc(Br)cc1)C(=O)O; ξW = NC(Cc1c[nH]c2ccccc12)C(=O)O; Cha = N[CH](CC1CCCCC1)C(=O)O; MeOSuc = COC(=O)CCC(=O)*; Cbz = O=C(OCc1ccccc1)*; Pentanoyl = CCCCC(=O)*; Ahx = NCCCCCC(=O)O; Bn = c1ccc(C*)cc1; OtBu = CC(C)(C)O*
# Target: endothelin converting enzyme (ECE) (Sus scrofa, UniProt F1SU04)
# Experiment: "ECE" assay with porcine aortic "ECE" prep, fluorogenic substrate Suc-Ile-Ile-Trp-MCA
# Type: biochemical
# Settings: porcine aortic endothelial cell ECE prep; 80 μM Suc-Ile-Ile-Trp-MCA; 15-20 min preincubation; overnight at 37° C.; pH 7.0; AMC fluorescence
# Method: IC50 values were determined as follows:
# Porcine Aortic "ECE" Prep
# Porcine aortas (22-25) were obtained fresh from a local slaughterhouse and delivered in cold PBS on ice. The aortas were cut open, rinsed with cold PBS and the endothelial cell layer scraped into cold PBS using a scalpel. The endothelial cells were pelleted by centrifugation, rinsed once with cold PBS, and repelleted. The pellet was lysed by addition of 10 volumes of 10 mM Tris-HCl, pH 7.0, containing protease inhibitors and DTS, followed by brief sonication and homogenization. The lysate was centrifuged at 100,000 g for 1 hour and the supernatant applied to a MONOQ FPLC anion exchange column equilibrated in 10 mM Tris-HCl, pH 7.0 (buffer A) which was then developed with an increasing gradient of NaCl in buffer A. The active fractions were aliquoted and stored at -70° C.
# The ECE assay was performed in 96-well microplates in a total volume of 200μ/well. The assay cocktail contains 100 mM Tris-HCl, pH 7.0, 20 mM CaCl2, 80 μM substrate (Suc-Ile-Ile-Trp-MCA), enzyme and test compounds. The test compounds were preincubated with the enzyme for 15-20 minutes before initiation of the assay by addition of the substrate. The assay was incubated overnight at 37° C. and the fluorescence intensity caused by the release of AMC was determined using a fluorescence microplate reader (EX360 nm/EM460 nm). IC50 values for compounds were determined by constructing concentration-effect curves for the inhibition of enzyme activity. Concentrations on the linear portion of the inhibition curve were used to determine the IC50 utilizing a Hill plot.
# Sequence of endothelin converting enzyme (ECE) (F1SU04 entry or part of it): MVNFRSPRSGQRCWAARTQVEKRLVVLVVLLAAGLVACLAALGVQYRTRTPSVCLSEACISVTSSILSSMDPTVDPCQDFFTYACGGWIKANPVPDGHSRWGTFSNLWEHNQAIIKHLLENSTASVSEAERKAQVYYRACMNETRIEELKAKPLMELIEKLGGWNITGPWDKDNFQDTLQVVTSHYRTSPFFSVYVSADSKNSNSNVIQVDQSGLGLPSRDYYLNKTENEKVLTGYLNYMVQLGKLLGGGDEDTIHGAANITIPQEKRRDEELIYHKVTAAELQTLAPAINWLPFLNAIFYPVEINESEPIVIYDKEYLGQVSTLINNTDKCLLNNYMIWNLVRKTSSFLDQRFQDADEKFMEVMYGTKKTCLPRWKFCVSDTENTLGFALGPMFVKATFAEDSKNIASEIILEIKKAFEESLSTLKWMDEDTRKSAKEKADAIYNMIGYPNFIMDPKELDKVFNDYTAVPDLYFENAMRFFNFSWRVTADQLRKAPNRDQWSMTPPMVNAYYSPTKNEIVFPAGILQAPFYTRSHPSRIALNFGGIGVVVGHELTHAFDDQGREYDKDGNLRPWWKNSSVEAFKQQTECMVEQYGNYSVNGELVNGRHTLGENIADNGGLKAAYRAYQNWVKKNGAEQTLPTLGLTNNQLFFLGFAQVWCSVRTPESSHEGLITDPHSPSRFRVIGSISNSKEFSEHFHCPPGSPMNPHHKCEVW
row,IC50,SMILES
1,200 nM,CC[C@H](C)[C@H](NC(=O)OCc1cccnc1)C(=O)N[C@H](C(=O)N[C@H](C=O)Cc1c[nH]c2ccccc12)[C@@H](C)CC [Example 81]
2,10000 nM,CCOC(=O)C1OC1C(=O)NCC(Cc1c[nH]c2ccccc12)NC(=O)[C@@H](NC(=O)[C@@H](NC(=O)OCc1ccccc1)[C@@H](C)CC)[C@@H](C)CC (stereo partly drawn) [Example 82]
3,1000 nM,"CC[C@H](C)[C@H](NC(=O)OCc1ccccc1)C(=O)N[C@H](C(=O)NC(CNC(=O)CCN1C(=O)C=CC1=O)Cc1c[nH]c2ccccc12)[C@@H](C)CC (stereo partly drawn) [Example 83, N-(benzyloxy)carbonyl-L-isoleucyl-L-isoleucine-L-N-[1-[(3-maleimidopropionamido]methyl]-2-(1H-indol-3-yl)ethyl]amide]"
4,1000 nM,CC[C@H](C)[C@H](NC(=O)OCc1ccccc1)C(=O)N[C@H](C(=O)N[C@H](CNC(=O)CN1C(=O)C=CC1=O)Cc1c[nH]c2ccccc12)[C@@H](C)CC [Example 84]
5,10000 nM,"CC[C@H](C)[C@H](NC(=O)OCc1ccccc1)C(=O)N[C@H](C(=O)NC(CNC(=O)CCl)Cc1c[nH]c2ccccc12)[C@@H](C)CC (stereo partly drawn) [Example 85, N-(benzyloxy)carbonyl-L-isoleucyl-L-isoleucine-L-N-[1-[(2-chloroacetamido]methy]-2-(1H-indol-3-yl)ethyl]amide]"
6,10000 nM,"CC[C@H](C)[C@H](NC(=O)OCc1ccccc1)C(=O)N[C@H](C(=O)NC(CNC(=O)CO)Cc1c[nH]c2ccccc12)[C@@H](C)CC (stereo partly drawn) [Example 86, N-(benzyloxy)carbonyl-L-isoleucyl-L-isoleucine-L-N-[1-[(2-hydroxyacetamido]methyl]-2-(1H-indol-3-yl)ethyl]amide]"
7,60 nM,"NC(=O)NN=CC(Cc1c[nH]c2ccccc12)NC(=O)[C@H](Cc1c[nH]c2ccccc12)NC(=O)[C@H](Cc1c[nH]c2ccccc12)NC(=O)CCCCCNC(=O)CCCCC1SCC2NC(=O)NC21 (stereo partly drawn) [Example 87, N-[[[5-(hexahydro-2-oxo-1H-thieno[3,4-d]imidazol-4-yl)valeramido]hexanoyl]-L-tryptophanyl-L-tryptophan-L-N-[1-semicarbazonomethyl]2-(1H-indol-3-yl)ethyl]amide]"
8,600 nM,CC[C@H](C)[C@H](NC(=O)OCc1ccccc1)C(=O)N[C@H](C(=O)NC(Cc1ccccc1)C(=O)C(=O)O)[C@@H](C)CC (stereo partly drawn) [Example 88]
9,50 nM,CC[C@H](C)[C@H](NC(=O)CCCCc1ccccc1)C(=O)N[C@H](C(=O)NC(C=O)Cc1c[nH]c2ccccc12)[C@@H](C)CC (stereo partly drawn) [Example 89]
10,60 nM,CC[C@H](C)[C@H](NC(=O)CCOc1ccccc1)C(=O)N[C@H](C(=O)N[C@H](C=O)Cc1c[nH]c2ccccc12)[C@@H](C)CC [Example 90]
11,5 nM,"O=C[C@H](Cc1c[nH]c2ccccc12)NC(=O)[C@H](Cc1c[nH]c2ccccc12)NC(=O)[C@H](Cc1c[nH]c2ccccc12)NC(=O)CCCCC1SCC2NC(=O)NC21 (stereo partly drawn) [Example 91, N-[[5-(hexahydro-2-oxo-1H-thieno[3,4-d]imidazol-4-yl)pentanoyl]-L-tryptophanyl-L-tryptophan-L-N-[1-formyl]2-(1H-indol-3-yl)ethyl]amide]"
12,1000 nM,"COC(OC)[C@H](Cc1c[nH]c2ccccc12)NC(=O)[C@H](Cc1cccc2ccccc12)NC(=O)[C@H](Cc1ccc(Br)cc1)NC(=O)CCCCC1SCC2NC(=O)NC21 (stereo partly drawn) [Example 92, N-[[5-(hexahydro-2-oxo-1H-thieno[3,4-d]imidazol-4-yl)pentanoyl]-L-p-bromophenylalanyl-L-1-naphthylalanyl-L-N-[1-dimethoxymethyl]2-(1H-indol-3-yl)ethyl]amide]"
13,2 nM,"O=CC(Cc1c[nH]c2ccccc12)NC(=O)[C@H](Cc1cccc2ccccc12)NC(=O)[C@H](Cc1ccc(Br)cc1)NC(=O)CCCCC1SCC2NC(=O)NC21 (stereo partly drawn) [Example 93, N-[[5-(hexahydro-2-oxo-1H-thieno[3,4-d]imidazol-4-yl)pentanoyl]-L-p-bromophenylalanyl-L-1-naphthylalanyl-L-N-[1-formyl]2-(1H-indol-3-yl)ethyl]amide]"
14,6 nM,O=C(N[C@@H](Cc1ccc(Br)cc1)C(=O)N[C@@H](Cc1cccc2ccccc12)C(=O)NC(Cc1ccccc1)C(=O)C1CO1)OCc1ccccc1 (stereo partly drawn) [Example 94]
15,1000 nM,"CC[C@H](C)[C@H](NC(=O)OCc1ccccc1)C(=O)N[C@H](C(=O)NC(Cc1c[nH]c2ccccc12)CN1C(=O)C=CC1=O)[C@@H](C)CC (stereo partly drawn) [Example 95, N-[(benzyloxy)carbonyl]-L-isoleucyl-L-isoleucine-L-N-[1-(N-maleimidomethyl)-2-(1H-indol-3-yl)ethyl]amide]"
16,10000 nM,"CC[C@H](C)[C@H](NC(=O)OCc1ccccc1)C(=O)N[C@H](C(=O)NC(Cc1ccccc1)C(=O)C(=O)C(=O)OC)[C@@H](C)CC (stereo partly drawn) [Example 96, N-[(benzyloxy)carbonyl]-L-isoleucyl-L-isoleucine-L-N-[1-(3-methoxycarbonyloxalyl]2-(phenyl)ethyl]amide]"
17,10000 nM,"O=CC(Cc1ccc(Br)cc1)NC(=O)C(Cc1ccc(OCc2ccccc2)cc1)NC(=O)C(CC1CCCCC1)NC(=O)OCc1ccccc1 (stereo not drawn) [Example 97, N-Benzyloxycarbonyl-S-cyclohexylalanyl-S-(O-benzyl)tyrosyl-1-S-formyl-1-(4-bromophenylmethyl)-methylamide] (Cbz-[Cha]-Tyr(Bn)-[Phe(4-Br)]-aldehyde; configuration not given here)"

# Continued, molecule first:
row,SMILES,IC50
1,CC[C@H](C)[C@H](NC(=O)[C@H](CC(=O)OC(C)(C)C)NC(=O)OCc1ccccc1)C(=O)N[C@H](C(=O)N[C@H](C=O)Cc1c[nH]c2ccccc12)[C@@H](C)CC [Example 64] (Cbz-D(OtBu)IIW-aldehyde),60 nM
2,"CC[C@H](C)[C@H](NC(=O)CCCCCNC(=O)CCCCC1SCC2NC(=O)NC21)C(=O)N[C@H](C(=O)NC(Cc1c[nH]c2ccccc12)C(OC)OC)[C@@H](C)CC (stereo partly drawn) [Example 66, N-[[[5-(hexahydro-2-oxo-1H-thieno[3,4-d]imidazol-4-yl)valeramido]hexanoyl]-L-isoleucyl-L-isoleucine-L-N-[1-dimethoxymethyl]2-(1H-indol-3-yl)ethyl]amide]",300 nM
3,CC[C@H](C)[C@H](NC(=O)CCCCCNC(=O)CCCCCNC(=O)OCc1ccccc1)C(=O)N[C@H](C(=O)N[C@@H](Cc1c[nH]c2ccccc12)C(OC)OC)[C@@H](C)CC [Example 68],5000 nM
4,CC[C@H](C)[C@H](NC(=O)CCCCCNC(=O)CCCCCNC(=O)c1cc(=O)[nH]c(=O)[nH]1)C(=O)N[C@H](C(=O)NC(C=O)Cc1c[nH]c2ccccc12)[C@@H](C)CC (stereo partly drawn) [Example 69],60 nM
5,CC[C@H](C)[C@H](NC(=O)CCCCCNC(=O)CCCCCNC(=O)CC1NC(=O)NC1=O)C(=O)N[C@H](C(=O)NC(C=O)Cc1c[nH]c2ccccc12)[C@@H](C)CC (stereo partly drawn) [Example 70],80 nM
6,CC[C@H](C)[C@H](NC(=O)CCCCCNC(=O)OCc1ccccc1)C(=O)N[C@H](C(=O)N[C@H](C=O)Cc1c[nH]c2ccccc12)[C@@H](C)CC [Example 71] ({Cbz-Ahx}-Ile-Ile-Trp-aldehyde),40 nM
7,CCCCC(=O)N[C@H](C(=O)N[C@H](C(=O)NC(C=O)Cc1c[nH]c2ccccc12)[C@@H](C)CC)[C@@H](C)CC (stereo partly drawn) [Example 72] (Pentanoyl-Ile-Ile-[ξW]-aldehyde),150 nM
8,CC[C@H](C)[C@H](NC(=O)CCC(=O)OC)C(=O)N[C@H](C(=O)NC(Cc1c[nH]c2ccccc12)C(OC)OC)[C@@H](C)CC (stereo partly drawn) [Example 73],8000 nM
9,CC[C@H](C)[C@H](NC(=O)CCC(=O)OC)C(=O)N[C@H](C(=O)NC(C=O)Cc1c[nH]c2ccccc12)[C@@H](C)CC (stereo partly drawn) [Example 74] (MeOSuc-Ile-Ile-[ξW]-aldehyde),80 nM
10,NC(=O)NN=CC(Cc1c[nH]c2ccccc12)NC(=O)[C@H](Cc1c[nH]c2ccccc12)NC(=O)[C@H](Cc1c[nH]c2ccccc12)NC(=O)OCc1ccccc1 (stereo partly drawn) [Example 75],40 nM
11,"CC[C@@H](C)[C@@H](NC(=O)OCc1ccccc1)C(=O)N[C@H](C(=O)N[C@H](C=O)Cc1c[nH]c2ccccc12)[C@@H](C)CC [Example 77, N-Benzyloxycarbonyl-R-isoleucyl-S-isoleucine-1-S--formyl-2-(1H--indol-3-yl)-ethylamide] (Cbz-[dI]-Ile-Trp-aldehyde)",1000 nM
12,"COC(OC)C(Cc1c[nH]c2ccccc12)NC(=O)[C@H](Cc1c[nH]c2ccccc12)NC(=O)[C@H](Cc1c[nH]c2ccccc12)NC(=O)CCCCCNC(=O)CCCCC1SCC2NC(=O)NC21 (stereo partly drawn) [Example 78, N-[[[5-(hexahydro-2-oxo-1H-thieno[3,4-d]imidazol-4-yl)valeramido]hexanoyl]-L-trytophanyl-L-tryptophan-L-N-[1-dimethoxymethyl]2-(1H-indol-3-yl)ethyl]amide]",10000 nM
13,CC[C@H](C)[C@H](NC(=O)OCc1ccccc1)C(=O)N[C@H](C(=O)NC(Cc1c[nH]c2ccccc12)NC(=O)COC(C)=O)[C@@H](C)CC (stereo partly drawn) [Example 80],10000 nM
